Results: patent US20070185014A1, “Methods and compositions for modulating conjunctival goblet cells” (The Schepens Eye Research Institute, Inc., priority 2006, published 2007)

Legend:
[1] = tested on: rat conjunctival goblet cells; experiment: Goblet cell proliferation, WST tetrazolium assay (Example 3A, Fluorescence Assay); format: cell-based; details: for stimulation of goblet cell proliferation compared to control (no additions): 10^−7 M; for goblet cell proliferation, Ave. fold / goblet cell proliferation, fold of basal, rat101 / goblet cell proliferation, fold of basal, rat102 / goblet cell proliferation, fold of basal, rat103: 24 hrs; for goblet cell proliferation, Ave. fold: average of 3 rats; for goblet cell proliferation, fold of basal, rat101: cells from rat101; for goblet cell proliferation, fold of basal, rat102: cells from rat102; for goblet cell proliferation, fold of basal, rat103: cells from rat103
Description: Conjunctival tissue from the fomical area and the nictitating membranes were removed from male Sprague Dawley rats. Tissue pieces were placed in explant culture in RPMI supplemented with fetal bovine serum (FBS). […] Non-goblet cells, predominantly fibroblasts, were removed by scraping. Goblet cells were allowed to grow and proliferate for several days. Cells were removed from the tissue culture vessel by trypsin treatment. The number of cells was counted using a coulter counter. For measurement of proliferation 200 cells were seeded onto 96 well plates. Cells were allowed to attach and proliferate until a sparsely confluent level was obtained, about two days.
Goblet cells from passage 1 or 2 cultured as above were used for measurement of proliferation. Cells were plated at 200 cells/well. Cells were serum-starved for 24 or 48 hrs. Test compounds in varying concentrations were added to each cell well for 24 hrs. The positive control for proliferation was the addition of 10% FBS, a known maximal stimulator of proliferation. Proliferation was terminated by the removal of medium.

[2] = tested on: rat conjunctival goblet cells; experiment: Goblet cell proliferation, Ki-67/UEA-1/DAPi immunofluorescence assay (Example 3B); format: cell-based; details: 24 hours; concentration most effective in the fluorescence assay (FBS 10%)
Description: Conjunctival tissue from the fomical area and the nictitating membranes were removed from male Sprague Dawley rats. Tissue pieces were placed in explant culture in RPMI supplemented with fetal bovine serum (FBS). Over several days cells grew out of the explant and proliferated. Non-goblet cells, predominantly fibroblasts, were removed by scraping. Goblet cells were allowed to grow and proliferate for several days. Cells were removed from the tissue culture vessel by trypsin treatment. The number of cells was counted using a coulter counter. For measurement of proliferation 200 cells were seeded onto 96 well plates. […]
B. Immunofluorescence Assay This assay was used to confirm the results from the fluorescence assay. […]
Ki-67 was detected with a rhodamine secondary antibody using a filter that measures excitation wavelengths from 530-560 nm. UEA-1, which stains goblet cells, was directly conjugated to fluorescein isothyocyanate (FITC) and was detected using a filter that measures excitation wavelengths from 450-490 nm. DAPi, which stains the nuclei of all cells, was detected using a filter that measures excitation wavelengths from 400-418 nm. The percentage of proliferating goblet cells is determined by dividing the number of Ki-67 positive goblet cells by the total number of cells and multiplying by 100. […]

Molecule: CC(C)Cn1c(=O)c2[nH]cnc2n(C)c1=O [1-isobutyl-3methylxanthine, reference compound]
- effect on goblet cell proliferation ([1]; 10^−6 to 10^−3 M): did not increase proliferation at the concentrations tested

Molecule: CC(C)NCC(O)c1ccc(O)c(O)c1 (stereo not shown) [Isoproterenol, reference compound]
- effect on goblet cell proliferation ([1]; 10^−7 to 10^−3 M, likely due to interference with the assay): did not increase proliferation

Molecule: EGF: epidermal growth factor, activates ErbB-1 receptors
- proliferation (Ki-67 positive goblet cells as percentage of total cells) [2]: 40%
- stimulation of goblet cell proliferation compared to control (no additions) [1]: about two

Molecule: CCCCCCCCCCCCCC(=O)O[C@@H]1[C@@H](C)[C@@]2(O)[C@@H](C=C(CO)C[C@]3(O)C(=O)C(C)=C[C@@H]23)[C@@H]2C(C)(C)[C@]12OC(C)=O [PMA, Phorbol myristic acid, reference compound]
- effect on goblet cell proliferation ([1]; 10^−8M, solubilized in less than 1% DMSO, compared to no additions): did not stimulate cell proliferation

Molecule: Galectin-1: recombinant galectin, mono-CRD carbohydrate-binding protein, obtained from Cell Services, Massachusetts, 98% pure
- dose dependence of effect on goblet cell proliferation ([1]; 0.1 μg/ml to 5 μg/ml): appeared to be dose dependent
- effect on goblet cell proliferation ([1]; 0.1 μg/ml to 5 μg/ml): both galectins stimulated goblet cell proliferation
- goblet cell proliferation, Ave. fold ([1]; 0.1 ug/ml): 1.0 fold
- goblet cell proliferation, fold of basal, rat101 ([1]; 0.1 ug/ml): 1.1 fold
- goblet cell proliferation, fold of basal, rat102 ([1]; 0.1 ug/ml): 1.0 fold
- goblet cell proliferation, fold of basal, rat103 ([1]; 0.1 ug/ml): 1.0 fold
- goblet cell proliferation, Ave. fold ([1]; 0.5 ug/ml): 1.0 fold
- goblet cell proliferation, fold of basal, rat101 ([1]; 0.5 ug/ml): 1.1 fold
- goblet cell proliferation, fold of basal, rat102 ([1]; 0.5 ug/ml): 1.0 fold
- goblet cell proliferation, fold of basal, rat103 ([1]; 0.5 ug/ml): 1.0 fold
- goblet cell proliferation, Ave. fold ([1]; 1.0 ug/ml): 1.0 fold
- goblet cell proliferation, fold of basal, rat101 ([1]; 1.0 ug/ml): 1.1 fold
- goblet cell proliferation, fold of basal, rat102 ([1]; 1.0 ug/ml): 1.0 fold
- goblet cell proliferation, fold of basal, rat103 ([1]; 1.0 ug/ml): 1.0 fold
- goblet cell proliferation, Ave. fold ([1]; 2.0 ug/ml): 1.2 fold
- goblet cell proliferation, fold of basal, rat101 ([1]; 2.0 ug/ml): 1.5 fold
- goblet cell proliferation, fold of basal, rat102 ([1]; 2.0 ug/ml): 1.2 fold
- goblet cell proliferation, fold of basal, rat103 ([1]; 2.0 ug/ml): 1.1 fold
- goblet cell proliferation, Ave. fold ([1]; 5.0 ug/ml): 1.3 fold
- goblet cell proliferation, fold of basal, rat101 ([1]; 5.0 ug/ml): 1.4 fold
- goblet cell proliferation, fold of basal, rat102 ([1]; 5.0 ug/ml): 1.4 fold
- goblet cell proliferation, fold of basal, rat103 ([1]; 5.0 ug/ml): 1.2 fold

Molecule: transforming growth factor (TGF)α: EGF family growth factor that activates ErbB-1 receptors
- stimulation of goblet cell proliferation compared to control (no additions) [1]: about two

Molecule: Galectin-3: recombinant galectin with single CRD domain and extended N-terminal region, obtained from Cell Services, Massachusetts, 98% pure
- dose dependence of effect on goblet cell proliferation ([1]; 0.1 μg/ml to 5 μg/ml): appeared to be dose dependent
- effect on goblet cell proliferation ([1]; 0.1 μg/ml to 5 μg/ml): both galectins stimulated goblet cell proliferation
- goblet cell proliferation, Ave. fold ([1]; 0.1 ug/ml): 1.0 fold
- goblet cell proliferation, fold of basal, rat101 ([1]; 0.1 ug/ml): 1.0 fold
- goblet cell proliferation, fold of basal, rat102 ([1]; 0.1 ug/ml): 0.9 fold
- goblet cell proliferation, fold of basal, rat103 ([1]; 0.1 ug/ml): 1.0 fold
- goblet cell proliferation, Ave. fold ([1]; 0.5 ug/ml): 1.1 fold
- goblet cell proliferation, fold of basal, rat101 ([1]; 0.5 ug/ml): 1.3 fold
- goblet cell proliferation, fold of basal, rat102 ([1]; 0.5 ug/ml): 1.0 fold
- goblet cell proliferation, fold of basal, rat103 ([1]; 0.5 ug/ml): 1.0 fold
- goblet cell proliferation, Ave. fold ([1]; 1.0 ug/ml): 1.2 fold
- goblet cell proliferation, fold of basal, rat101 ([1]; 1.0 ug/ml): 1.3 fold
- goblet cell proliferation, fold of basal, rat102 ([1]; 1.0 ug/ml): 1.1 fold
- goblet cell proliferation, fold of basal, rat103 ([1]; 1.0 ug/ml): 1.0 fold
- goblet cell proliferation, Ave. fold ([1]; 2.0 ug/ml): 1.3 fold
- goblet cell proliferation, fold of basal, rat101 ([1]; 2.0 ug/ml): 1.5 fold
- goblet cell proliferation, fold of basal, rat102 ([1]; 2.0 ug/ml): 1.3 fold
- goblet cell proliferation, fold of basal, rat103 ([1]; 2.0 ug/ml): 1.1 fold
- goblet cell proliferation, Ave. fold ([1]; 5.0 ug/ml): 1.4 fold
- goblet cell proliferation, fold of basal, rat101 ([1]; 5.0 ug/ml): 1.8 fold
- goblet cell proliferation, fold of basal, rat102 ([1]; 5.0 ug/ml): 1.2 fold
- goblet cell proliferation, fold of basal, rat103 ([1]; 5.0 ug/ml): 1.1 fold

Molecule: C[N+](C)(C)CCOC(N)=O [Carbachol, reference compound]
- effect on goblet cell proliferation ([1]; 10^−6 to 10^−3 M): did not increase cell proliferation at any concentration

Molecule: PDGF
- increase in goblet cell proliferation compared to no additions ([1]; 5 to 25 ng/ml): 2 fold

Molecule: CCCC(=O)Nc1ncnc2c1ncn2[C@@H]1O[C@@H]2COP(=O)(O)O[C@H]2[C@H]1OC(=O)CCC [butyryl cAMP, dibutyryl cAMP, reference compound]
- effect on goblet cell proliferation ([1]; 10^−6 to 10^−3 M): did not increase proliferation at the concentrations tested

Molecule: bFGF: Basic fibroblast growth factor, also referred to as FGF-2
- proliferation (Ki-67 positive goblet cells as percentage of total cells) [2]: 70%
- effect on goblet cell proliferation ([1]; 10-20 ng/ml, similar to PDGF (2-fold)): had similar effects

Molecule: HGF: hepatocyte growth factor
- effect on goblet cell proliferation ([1]; 15-40 ng/ml): Neither hepatocyte growth factor (HGF, 15-40 ng/ml) nor keratinocyte growth factor (KGF, 10-30 ng/ml), at any of the concentrations used, stimulated cell proliferation

Molecule: Heregulin
- stimulation of goblet cell proliferation compared to control (no additions) [1]: more than 2 fold

Molecule: CCCC(=O)O[C@@H]1[C@@H](C)[C@@]2(O)[C@@H](C=C(CO)C[C@]3(O)C(=O)C(C)=C[C@@H]23)[C@@H]2C(C)(C)[C@]12OC(=O)CCC [phorbol dibutyrate β isoform, phorbol dibutyrate, reference compound]
- effect on goblet cell proliferation ([1]; concentrations not greater than 10^−7 M, solubilized in DMSO): Neither isoform increased proliferation except at high concentrations
- effect on goblet cell proliferation ([1]; high concentrations, greater than 10^−7 M, effect not mediated by PKC): both isoforms increased proliferation

B1: HB-EGF: Heparin binding-EGF, binds to ErbB-1 and ErbB-3 receptors (protein, UniProt Q99075 63-148, looked up)
Heparin-binding EGF-like …: DLQEADLDLLRVTLSSKPQALATPNKEEHGKRKKKGKGLGKKRDPCLRKYKDFCIHGECKYVKELRAPSCICHPGYHGERCHGLSL
- stimulation of goblet cell proliferation compared to control (no additions) [1]: 2 fold

B2: KGF: keratinocyte growth factor (protein, UniProt P21781 32-194, looked up)
Fibroblast growth factor 7: CNDMTPEQMATNVNCSSPERHTRSYDYMEGGDIRVRRLFCRTQWYLRIDKRGKVKGTQEMKNNYNIMEIRTVAVGIVAIKGVESEFYLAMNKEGKLYAKKECNEDCNFKELILENHYNTYASAKWTHNGGEMFVALNQKGIPVRGKKTKKEQKTAHFLPMAIT
- effect on goblet cell proliferation ([1]; 10-30 ng/ml): Neither hepatocyte growth factor (HGF, 15-40 ng/ml) nor keratinocyte growth factor (KGF, 10-30 ng/ml), at any of the concentrations used, stimulated cell proliferation
